Columns and labels:
IL-1 receptor = target: T1, IL-1 receptor (Mus musculus, UniProt P13504); assay: Inhibition of the binding of 125I-IL-1 to its receptor in 3T3 fibroblasts (Radioligand Binding); conditions: 3T3 cells of mouse, 125I-IL-1 10 pM, sample 1 mg/ml, 37° C. 2 hours; both medium and low MW
T1 construct: the line of murine fibroblasts 3T3 was used, sensitive to the cytotoxic activity of IL-1, expressing its relative receptor; endogenous in cells; host or cells: 3T3 murine fibroblasts (whole cells)
T1 sequence (P13504 20-576): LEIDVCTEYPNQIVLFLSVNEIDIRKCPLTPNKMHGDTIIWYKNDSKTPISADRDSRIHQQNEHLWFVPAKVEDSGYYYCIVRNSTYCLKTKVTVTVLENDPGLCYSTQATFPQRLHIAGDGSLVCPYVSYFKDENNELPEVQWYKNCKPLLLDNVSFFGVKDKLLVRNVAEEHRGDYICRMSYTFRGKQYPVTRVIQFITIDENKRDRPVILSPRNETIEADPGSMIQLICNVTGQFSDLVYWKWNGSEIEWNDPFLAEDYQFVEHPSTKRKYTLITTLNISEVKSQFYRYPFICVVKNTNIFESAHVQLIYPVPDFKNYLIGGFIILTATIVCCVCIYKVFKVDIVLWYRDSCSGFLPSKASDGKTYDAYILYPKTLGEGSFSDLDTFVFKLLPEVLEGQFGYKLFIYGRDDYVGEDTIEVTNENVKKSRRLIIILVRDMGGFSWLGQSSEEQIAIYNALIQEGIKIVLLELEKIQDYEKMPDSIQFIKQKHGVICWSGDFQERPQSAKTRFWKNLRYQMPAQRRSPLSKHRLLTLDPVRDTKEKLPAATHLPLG
Source text: These experiments were effected to evaluate the effectiveness of the samples tested (prepared according to Examples 1-3 and 4) on the capacity of inhibiting the binding of IL-1 to its receptor expressed by 3T3 cells of mouse, normally used in vitro for this type of experiment, carried out with iodinated cytokine components for an evaluation in Radioligand Binding assays. The experimental procedure was effected as described in Chin J et al., J Exp Med, 1987, 165:70-86. In short, the line of murine fibroblasts 3T3 was used, sensitive to the cytotoxic activity of IL-1, expressing its relative receptor. […] At the end of the incubation, the cells were washed with phosphate buffer, then dissolved in 2.5 M of NaOH and counted in a γ-counter.

IL-10 = assay: Gene expression of IL-10 in human synoviocytes (PCR Real Time); format: cell-based; conditions: 3 days of treatment, FIG. 1: HAS1 0.5 mg/ml, HAS3 0.1 mg/ml, vs control treated with non-sulfated HA 200 KD
Method: Human synoviocytes previously expanded in vitro and maintained in a culture at 37° C. with a medium of DMEM containing 10% of FCS, were seeded at a concentration of 20,000 cells per well (synoviocytes are cells capable of producing various types of cytokines, and are therefore normally used for this type of experimental test). […] After 3 days of treatment, the PCR Real Time was effected to evaluate the gene expression of IL-10 and IL-12: the cell RNA was extracted using the “Trizol” method, following the indications of the supplier (TRIZOL reagent, LIFE Technologies, GIBCO BRL). In short, the cells were lysed by the addition of 1.0 ml of Trizol and the total RNA was quantified by measuring its absorbance at 260 nm. The appropriate primers were selected for each gene to be amplified, using the software Primer3 (Roche Molecular Diagnostics, Pleasanton, Calif., USA). The gene expression was evaluated by means of PCR Real Time effected with a Rotor-gene TM5500 (Corbett research, Sydney, Australia). The PCR reactions were effected using primers at […] and SYBR Green (Invitroge, Carlsbad, Calif., USA) at 40 cycles of 15 s at 95° C., and 1 min. at 60° C. The value of “Fluorescence thresholds (Ct)” was automatically determined by the software, evaluating an amplification coefficient for the genes studied between 92 and 110%. […]

sulfated hyaluronic acid degree 3 [HAS3]
inhibition of the binding of IL-1 to its receptor (IL-1 receptor): 30%
gene expression of the cytokine IL-10 (IL-10): significant increase

— patent US11198741B2, “Medicines for topic use based on sulfated hyaluronic acid as activating or inhibiting agent of the cytokine activity” (Fidia Farmaceutici S.p.A., priority 2009, dated 2021)
